Experimental data as given in US4220795A, “Cyclobutyl substituted derivatives of prostaglandin analogs” (Miles Laboratories, Inc., priority 1978, dated 1980).
In brackets after ≈: the same amount, converted by molar mass.

Legend:
[1] = system: blood pressure; test: Effects on Blood Pressure and Heart Rate in the Anesthetized Cat (Test D); format: in vivo; settings: Felis catus, iv, i.v. 0.01 to 10.0 mcg/kg, scored on hypotension, read-out: Activity value, Test D: Normal Feline Blood Pressure and Heart Rate (ED50 mmHg)
Description: D. Evaluation of the Effects of Prostaglandin Analogs III on Blood Pressure and Heart Rate in the Anesthetized Cat
The acute effects of test compounds on blood pressure and heart rate were determined in cats of either sex anesthetized with a mixture of pentobarbital sodium (35 mg/kg, i.v.) and barbital sodium (100 mg/kg, i.v.). Cannulas were placed in the trachea to allow adequate spontaneous ventilation, in a femoral artery for blood pressure recording with a strain gage transducer, and in a saphenous vein for drug administration. Heart rate was recorded by means of a cardiotachometer driven by the R wave of the electrocardiogram. After a period of 10 min of stable recordings of blood pressure and heart rate, the test compound was administered intravenously at doses increasing from 0.01 to 10.0 mcg/kg, spaced one log and injected at 10 min intervals. All doses were injected in a volume of 0.1 ml/kg. Modifications of blood pressure and heart rate induced by the test compound were expressed both in absolute units (mmHg and beats/min) and as percent of values recorded immediately before administration of each dose. Biphasic responses were tabulated in the order in which they occur. The direction of the observed changes was also noted (+ for increase and - for decrease).
Activity of compounds in this test was judged only on the basis of the degree of hypotension observed. Thus, the ED50 mmHg (dose decreasing blood pressure by 50 mmHg) was calculated graphically and the compound scored according to the following scale: […]

[2] = system: rat uterus; test: Effects on the Rat Uterus (Test F); settings: rat uterus segments, 0.001 to 10.0 mcg/ml, 29° C.; read-out: Activity value, Test F: Effects on Rat Uterus (ED50, response of 50% that of carbachol)
Description: F. Evaluation of the Effects of Prostaglandin Analogs III on the Rat Uterus
The uterine stimulant effect of test compounds is determined in segments of uterus obtained from rats (140-160 g) pretreated subcutaneously with 1 mg/kg of diethylstibesterol 18 hr before the experiment. The tissues are placed in 10 ml chambers filled with de-Jalon solution at 29° C. and bubbled with 95% O2 and 5% CO2, and prepared for isometric recording with force displacement transducers. Preparations are stretched to an initial tension of 1 g and are left undisturbed for 30 min, after which two responses to 1 mcg/ml of carbachol added to the bath at a 10 min interval, are obtained (the value of the second response is recorded). Responses to increasing concentrations of the test compound (0.001 to 10.0 mcg/ml with one log intervals) are then recorded every 10 min. Preparations are washed four times after each response. All doses of drugs are administered in a 0.1 ml volume. Since it has been observed that the magnitude of the second response to carbachol, which is approximately 10% greater than the first, is close to the maximal response of the tissue, such value is taken as a measure of the sensititity of the particular segment. Responses to each concentration of the test compound are expressed in terms of percentage of the second response to carbachol and the ED50 (dose producing a response of 50% that of carbachol) is calculated graphically. Activity is scored according to the following scale: […]

[3] = system: blood pressure (hypertensive rat); test: Effects on Blood Pressure in the Hypertensive Rat (Test E); format: in vivo; design: key: 0: Not significant at any time interval; 1: Significant at one time interval; 2: Significant at two time intervals; 3: Significant at three time intervals; 4: Significant at all four intervals; settings: 1 mg/kg intraperitoneal, 2, 4, 6 and 8 hr
Description: E. Evaluation of the Effects of Prostaglandin Analogs III on Blood Pressure in the Hypertensive Rat
The acute antihypertensive activity of test compounds is determined in rats made hypertensive by the procedure of Grollman (A. Proc. Soc. Exper. Biol. Med., 57:102, [1944]). Female rats weighing between 60 and 100 g are anesthetized with ether, the right kidney approached through a flank retroperitoneal incision, decapsulated and tied with a figure-of-eight ligature. The animals are left to recover and two weeks later are again anesthetized and the contralateral kidney removed. Four weeks after the second operation the rats are subjected to indirect blood pressure measurements and those showing systolic pressure values greater than 160 mmHg are selected for drug testing.
Blood pressure is measured in the tail with an inflatable occluding cuff placed at the base of the extremity and a pulse detector located distally. The cuff is inflated to approximately 300 mmHg and is slowly deflated until pulsations appear, indicating the level of systolic pressure; diastolic pressure is not recorded by this procedure. All measurements are carried out in unanesthetized, unsedated animals maintained in a warm environment during the recording procedure and for at least 6 hr before. In all cases, three pressure readings are obtained in succession and mean values are calculated thereof.
Experiments are carried out in groups of five hypertensive rats in which systolic pressure is determined immediately before and 2, 4, 6 and 8 hr after the intraperitoneal administration of the test compound at a dose of 1 mg/kg. Drugs are diluted from stock solutions with phosphate buffer (Lee et al., Prostaglandins 3:29 [1973]), so as to inject this quantity in a volume of 1 ml/kg. Changes from control blood pressure values are calculated for each interval both in mmHg and in per-cent, and evaluated for significance by means of Wilcoxon's signed rank test (Wilcoxon and Wilcox, Some rapid approximate statistical procedures, Lederle Laboratories, Pearl River [1964]).

[4] = system: femoral blood flow; test: Effects on Femoral Blood Flow in the Dog (Test C); format: in vivo, dog (mongrel); settings: anesthetized dog, intraarterial 0.001 to 10 mcg
Description: C. Evaluation of the Effects of Prostaglandin Analogs III on the Femoral Blood Flow in the Dog
The peripheral vasodilator or constrictor effects of test compounds were determined in mongrel dogs of either sex, weighing between 10 and 20 kg anesthestized intravenously with 35 mg/kg of sodium pentobarbital. An external iliac artery was dissected immediately above the femoral arch for a length of approximately 5 cm and a previously calibrated, non-connulating electromagnetic flowmeter sensor with a lumen between 2.5 and 3.5 mm was placed snugly around the vessel. Cannulas were placed in a branch of the artery arising distally to the location of the flowmeter sensor for intraarterial drug administrations, in the contralateral femoral artery for systemic blood pressure recordings and in the trachea for artificial respiration with room air. Femoral blood flow and systemic blood pressure were continuously recorded with an electromagnetic flowmeter and pressure transducer, respectively.
After an adequate control period, test compounds were injected intraarterially at one log-spaced doses ranging from 0.001 to 10 mcg., in a volume of 0.5 ml and at 5 to 10 min intervals. Maximum changes in bloodflow, as well as any variations in blood pressure, were tabulated for each dose in absolute values (ml/min and mmHg). The calculations were made taking as control values those existing immediately before administration of each dose. The direction of the observed change (+ for increase and - for decrease) was also noted. The dose changing bloodflow by 100 ml/min (ED100 ml/min) was calculated graphically and was used for scoring activity as follows: […]

| SMILES | ED (50 mmHg) [1] [mg/kg] | EC50 [2] [µg/mL] | Activity value, Test E: Effects on Blood Pressure in Hypertensive Rat (blood pressure decrease) [3] | Activity value, Test C: Increase in Canidae Femoral Blood Flow (ED100 ml/min) [4] |
| --- | --- | --- | --- | --- |
| CCC1CC([C@@H](O)/C=C/[C@H]2[C@H](O)CC(=O)[C@@H]2CCCCCCC(=O)OC)C1 (stereo partly drawn) [TR-4248, Methyl 11α,15R-dihydroxy-16,18-methano-9-oxoprost-13E-en-1-oate] | 0.00011 to 0.001 | 0.101 to 1 (≈ 0.265 to 2.63 µM) | 1 | 2 (0.11-1.0) |
| CCC1CC([C@H](O)/C=C/[C@H]2[C@H](O)CC(=O)[C@@H]2CCCCCCC(=O)OC)C1 (stereo partly drawn) [TR-4249, Methyl 11α,15S-dihydroxy-16,18-methano-9-oxoprost-13E-en-1-oate] | > 0.0101 | > 10 | 0 | 0 (>10.0) |
| CCC1CC([C@@H](O)/C=C/[C@H]2C=CC(=O)[C@@H]2CCCCCCCOC(C)=O)C1 (stereo partly drawn) [TR-4568, 1-Acetoxy-15R-hydroxy-16,18-methanoprosta-10,13E-dien-9-one] | > 0.0101 | > 10 | 0 | 0 (>10.0) |
| CCC1CC([C@@H](O)/C=C/[C@H]2[C@H](O)CC(=O)[C@@H]2CCCCCCCO)C1 (stereo partly drawn) [TR-4569, 16,18-Methano-1,11α,15R-trihydroxyprost-13E-en-9-one] | > 0.0101 | > 10 | 0 | 0 (>10.0) |
| CCC1CC([C@H](O)/C=C/[C@H]2[C@H](O)CC(=O)[C@@H]2CCCCCCCO)C1 (stereo partly drawn) [TR-4570, 16,18-Methano-1,11α,15S-trihydroxyprost-13E-en-9-one] | > 0.0101 | 0.101 to 1 (≈ 0.287 to 2.84 µM) | 0 | 0 (>10.0) |
| CCCCC1([C@H](O)/C=C/[C@H]2[C@H](O)CC(=O)[C@@H]2CCCCCCCO)CCC1 [TR-4645, 16,16-Propano-1,11α,15R-trihydroxyprost-13E-en-9-one] | > 0.0101 | > 10 | 0 | 1 (1.0.-10.0) |
| CCCCC1([C@@H](O)/C=C/[C@H]2[C@H](O)CC(=O)[C@@H]2CCCCCCCO)CCC1 [TR-4646, 16,16-Propano-1,11α,15S-trihydroxyprost-13E-en-9-one] | > 0.0101 | > 10 | 0 | 0 (>10.0) |
| CC1([C@H](O)/C=C/[C@H]2[C@H](O)CC(=O)[C@@H]2CCCCCCCO)CCC1 [TR-4673, 16,19-Cyclo-16-methyl-20-nor-1,11α,15R-trihydroxyprost-13E-en-9-one] | > 0.0101 | > 10 | 1 | 0 (>10.0) |
| CCCCC1([C@@H](O)/C=C/[C@H]2[C@H](O)CC(=O)[C@@H]2CCCCCCC(=O)OC)CCC1 [TR-4677, Methyl 11α,15S-dihydroxy-9-oxo-16-,16-propanoprost-13E-en-1-oate] | > 0.0101 | 0.01 to 0.1 (≈ 0.0245 to 0.245 µM) | 0 | 0 (>10.0) |
| CCC1CC(C)([C@@H](O)/C=C/[C@H]2[C@H](O)CC(=O)[C@@H]2CCCCCCC(=O)OC)C1 (stereo partly drawn) [TR-4682, Methyl 11α,15S-dihydroxy-16,18-methano-16-methyl-9-oxoprost-13E-en-1-oate] | 0.00101 to 0.01 | > 10 | 0 | 3 (0.01-0.1) |
| CCC1CC(C)([C@H](O)/C=C/[C@H]2[C@H](O)CC(=O)[C@@H]2CCCCCCCO)C1 (stereo partly drawn) [TR-4688, 16,18-Methano-16-methyl-1,11α,15R-trihydroxyprost-13E-en-9-onc] | > 0.0101 | > 10 | 0 | 0 (>10.0) |
| COC(=O)CCCCCC[C@H]1C(=O)C[C@@H](O)[C@@H]1/C=C/[C@@H](O)C1(C)CCC1 [TR-4690, Methyl 16,19-cyclo-11α,15R-dihydroxy-16-methyl-20-nor-9-oxoprost-13E-en-1-oate] | 0.00101 to 0.01 | > 10 | 0 | 2 (0.11-1.0) |
| COC(=O)CCCCCC[C@H]1C(=O)C[C@@H](O)[C@@H]1/C=C/[C@H](O)C1(C)CCC1 [TR-4691, Methyl 16,19-cyclo-11α,15S-dihydroxy-16-methyl-20-nor-9-oxoprost-13E-en-1-oate] | > 0.0101 | > 10 | 0 | 2 (0.11-1.0) |
